Results as given in patent US20250009861A1, “ANTI-CANCER VACCINE COMPOSITION COMPRISING PEPTIDES DERIVED FROM TUMOR-ASSOCIATED ANTIGEN, AND ADJUVANT CONSISTING OF LIPOPEPTIDE AND IMMUNOACTIVE SUBSTANCE, AND USE THEREOF” (CHA VACCINE RESEARCH INSTITUTE CO., LTD, priority 2021, published 2025).

Tested on: peripheral blood mononuclear cells (PBMCs)
Test: IFN-γ ELISPOT immunogenicity assay in PBMCs
Type: cell-based, human
Details: single peptides, PBMCs of healthy people, compared to control untreated with peptides; FIG. 1
Protocol: To confirm the immunogenicity of the 13 peptides selected in Example 1, interferon gamma (IFNg)-enzyme linked immuno-SPOT assay (ELISPOT) was performed.
This experiment is a sensitive immunoassay that can detect cytokines secreted by a single cell. By attaching the cytokines secreted when cells are activated to a capture antibody, the secreted cytokines can be measured without being affected by proteins expressed on the cell surface or proteolytic enzymes. After attaching the cytokine to the capture antibody, the cells are removed, a detecting antibody conjugated to an enzyme that can recognize the attached capture antibody is added, and a chromogenic substrate for the enzyme is added, forming a chromogenic spot at the location of the cell secreting the cytokine, and the number of spots can be used to determine the number of cells that have responded to the stimulating antigen.
The peripheral blood mononuclear cells (PBMCs) required for the experiment were isolated from human venous blood as follows. The venous blood was diluted with 1×PBS, placed in SepMate-50 tubes, and centrifuged at 800 g for 20 minutes at room temperature. After centrifugation, the plasma and the separated PBMCs were washed, placed in each well of a 6 well tissue culture plate at a concentration of 1×10^6 cells/mL, and cultured overnight in an incubator (37° C., 5% CO2). The next day, the PBMC culture solution was recovered and centrifuged at 2000 rpm for 15 minutes at room temperature. After centrifugation, PBMCs were seeded in a 6 well cell culture plate, and peptides were added thereto and cultured to stimulate the cells.
At this time, the 13 peptides selected in Example 1 were treated alone or with various peptide combinations, and an untreated group and a ConA group were also prepared for comparative analysis. […] After attaching ELI-FOIL to the dried ELISPOT plate and stamping the membrane, the number of spots in each well was read using an ELISPOT reader. […]

Sequence	immunogenicity (IFN-γ ELISPOT spots)
FLWGPRALV [CHA-11]	lowest immunogenicity
LMLGEFLKL [CHA-6, Survivin (97-104) derived peptide, HLA class I, A02; excluded]	lowest immunogenicity
TQHFVQENYLEY [CHA-10, Mage-A3 (246-260) derived peptide, HLA class II, DRB1; excluded]	lowest immunogenicity
